Values quoted from earlier work as cited in patent US20100047803A1, “BIOMARKERS FOR ACETAMINOPHEN TOXICITY” (priority 2008, published 2010).

Legend:
[1] = administration after hepatic failure has developed
[2] = test system: CYP2E1, CYP1A2, and CYP3A4; settings: by CYP2E1, CYP1A2, and CYP3A4

SMILES	reduction in mortality [1]	share of acetaminophen converted to NAPQI [2]
CC(=O)N[C@@H](CS)C(=O)O [N-acetylcysteine]	21-28%	–
CC(=O)Nc1ccc(O)cc1 [acetaminophen, Acetaminophen]	–	5 to 9%
